Measurements: ChEMBL document CHEMBL3046836, “Laboratory assays of select candidate insecticides for control of Dendroctonus ponderosae” (2011)
≈ marks a conversion by molar mass, not a printed value. Where “and” joins values, the source holds several entries; their conditions need not be identical. Identical values can stand only once. Calls of active or inactive are those of the source. No cut-off for these calls is given here.

Columns and labels:
Type in all cases: functional
[1] = system: Dendroctonus ponderosae; experiment: Insecticidal activity against adult Dendroctonus ponderosae assessed as mortality after 24 hr by filter paper assay
[2] = system: Dendroctonus ponderosae; experiment: Insecticidal activity against adult male Dendroctonus ponderosae assessed as mortality applied topically to ventral surface of insect mesothorax after 24 hr
[3] = system: Dendroctonus ponderosae; experiment: Insecticidal activity against adult female Dendroctonus ponderosae assessed as mortality applied topically to ventral surface of insect mesothorax after 24 hr
[4] = system: Dendroctonus ponderosae; experiment: Insecticidal activity against adult Dendroctonus ponderosae assessed as mortality applied topically on the ventral surface of insect mesothorax after 12 hr; settings: topical
[5] = system: Dendroctonus ponderosae; experiment: Insecticidal activity against adult Dendroctonus ponderosae assessed as mortality after 12 hr by filter paper assay
[6] = system: Dendroctonus ponderosae; experiment: Insecticidal activity against adult Dendroctonus ponderosae assessed as mortality applied topically to ventral surface of insect mesothorax after 24 hr
[7] = system: Dendroctonus ponderosae; experiment: Insecticidal activity against adult female Dendroctonus ponderosae assessed as mortality after 24 hr by filter paper assay
[8] = system: Dendroctonus ponderosae; experiment: Insecticidal activity against adult male Dendroctonus ponderosae assessed as mortality after 24 hr by filter paper assay
[9] = Dendroctonus ponderosae, 24 h, read-out: LC50
[10] = Dendroctonus ponderosae, topical, 24 h, read-out: LC50

Question: `CNC(=O)c1cc(Cl)cc(C)c1NC(=O)c1cc(Br)nn1-c1ncccc1Cl` [CHLORANTRANILIPROLE] was tested. Which LC50 [1, 9] did it give?
Answer: 34.9 µg/mL (≈ 72.2 µM)

Question: And the LC50 [2, 10]?
Answer: 1750 µg/mL (≈ 3620 µM)

Question: And the LC50 [3, 10]?
Answer: 1110 µg/mL (≈ 2300 µM)

Question: And the LC50 [4]?
Answer: 6300 µg/mL (≈ 13000 µM)

Question: And the LC50 [5]?
Answer: inactive

Question: What about the LC50 [6, 10] of the same compound?
Answer: 1380 µg/mL (≈ 2870 µM)

Question: And the LC50 [7]?
Answer: 72.7 µg/mL (≈ 150 µM)

Question: And the LC50 [8, 9]?
Answer: 11 µg/mL (≈ 22.8 µM)

Question: How did the LC50 [1] turn out when `CNC(=O)c1cc(C#N)cc(C)c1NC(=O)c1cc(Br)nn1-c1ncccc1Cl` [CYANTRANILIPROLE] was run?
Answer: 3 µg/mL and 6.2 µg/mL

Question: And the LC50 [2]?
Answer: 301.5 µg/mL and 102 µg/mL

Question: What about the LC50 [3] of the same compound?
Answer: 164.8 µg/mL (≈ 348 µM)

Question: What about the LC50 [3, 10] of the same compound?
Answer: 258 µg/mL (≈ 544 µM)

Question: What about the LC50 [5] of the same compound?
Answer: 46.1 µg/mL (≈ 97.3 µM)

Question: What about the LC50 ([5]; Dendroctonus ponderosae, 12 h, read-out: LC50) of the same compound?
Answer: 56.8 µg/mL (≈ 120 µM)

Question: What about the LC50 [6] of the same compound?
Answer: 141.5 µg/mL (≈ 299 µM)

Question: What about the LC50 [6, 10] of the same compound?
Answer: 271 µg/mL (≈ 571 µM)

Question: And the LC50 [8]?
Answer: 1.7 µg/mL (≈ 3.59 µM)

Question: And the LC50 [8, 9]?
Answer: 3.4 µg/mL (≈ 7.18 µM)
